In brackets after ≈: the same amount, converted by molar mass. Read-outs that look alike come from different tables or passages of the source.
Assays:
[1] = tested on: DC-3F (hamster lung) cells; test: Cytotoxicity assay, DC-3F cells (sulforhodamine B protein content); format: cell-based; conditions: Mesocricetus auratus, DC3F; DC-3F cells, sulforhodamine B; read-out: Inhibition of cancer cell growth IC50, DC-3F
Method: (§1) Cultures were fixed with trichloroacetic acid and then stained for 30 minutes with 0.4% sulforhodamine B dissolved in 1% acetic acid. Unbound dye was removed by acetic acid washes, and the protein-bound dye was extracted with an unbuffered Tris base [tris(hydroxy-methyl)aminomethan] for determination of absorbance at 570 nm in a 96-well microplate reader. The experiments were carried out in duplicate using five to six concentrations of the drugs tested. Data were analyzed via computer software.

[2] = tested on: 833K (human teratocarcinoma) cells; test: Cytotoxicity assay, 833K cells (sulforhodamine B protein content); format: cell-based; conditions: Homo sapiens; 833K cells, sulforhodamine B; read-out: Inhibition of cancer cell growth IC50, 833K
Method: as §1

Lewis lung carcinoma = test: Antitumor activity in vivo, Lewis lung carcinoma; conditions: B6D2F1 mice, intraperitoneously twice daily for five days
Method: (§2) Antitumor activities of camptothecin derivatives were tested in B6D2F1 mice bearing sarcoma-180 or Lewis lung murine solid tumor. For S-180, 3×10^6 cells were innoculated subcutaneously on […]. Antitumor treatment started on day 1 intraperitoneously twice daily for five days. Tumor volumes on day 7 and day 14 were measured. Average tumor volumes were described as the ratio of treated versus untreated control (T/C). The control (treated with DMSO vehicle only) tumor volumes for day 7 and day 14 were 0.11 cm^3 and 0.61 cm^3, respectively. The T/C camptothecin is designated with “+++.” An increment or decrement of 10% as compared to the camptothecin T/C on day 14 at 2 mg/kg dosage is designated with increase or decrease of one “+” unit, respectively.
For Lewis lung carcinoma, tumor cells (1×10^6) were inoculated subcutaneously on day 0 and treatment started on day 1, intraperitoneously twice daily for five days. The grading of effects was as described above.

[3] = tested on: HL-60 (human promyelocytic leukemic) cells; test: Cytotoxicity assay, HL-60 cells (XTT-microculture tetrazolium assay); format: cell-based; conditions: Homo sapiens; HL-60 cells, 72 hr incubation, XTT; read-out: Inhibition of cancer cell growth IC50, HL-60
Method: The camptothecin derivatives were evaluated for their cytotoxic effects on the growth of HL-60 (human promyelocytic leukemic), 833K (human teratocarcinoma) and DC-3F (hamster lung) cells in vitro. The cells were cultured in an initial density of […]. They were maintained in a 5% CO2 humidified atmosphere at 37° C. in RPMI-1640 media (GIBCO-BRL Grand Island, N.Y.) containing penicillin 100 μ/ml)/streptomycin (100 ^μg/ml) (GIBCO-BRL) and 10% heat inactivated fetal bovine serum. The assay was performed in duplicate in 96-well microplates. The cytotoxicity of the compounds toward HL-60 cells following 72 hr incubation was determined by XTT-microculture tetrazolium assay. Scudiero, D. A., et al., Cancer Res., 48, 4827 (1988), the disclosure of which is incorporated herein by reference. 2′, 3′-bis(-methoxy-4-nitro-5-sulfheny)-5-[(phenylamino)carbonyl]-2H-tetrazolium hydroxide (XTT) was prepared at 1 mg/ml in prewarmed (37° C.) medium without serum. Phenazine methosulfate (PMS) and fresh XTT were mixed together to obtain 0.075 mM PMS-XTT solution (25 ^μl of the stock 5 mM PMS was added per 5 ml of 1 mg/ml XTT). Fifty ^μl of this mixture was added to each well of the cell culture at the end of 72 hr incubation. After incubation at 37° C. for 4 hr., absorbance at 450 nm and 630 nm was measured with a microplate reader (EL340, Bio-Tek Instruments, Inc., Winooski, Vt.).

[4] = cited from earlier work
[5] = earlier studies; cited from earlier work
[6] = Kinetics of lactone ring opening in whole human blood (HPLC);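 note: hydrolytic opening of the camptothecin lactone ring followed over time by quantitative C18 reversed-phase HPLC in human whole blood at physiological temperature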
[7] = whole human blood, earlier studies; cited from earlier work
[8] = Equilibrium binding to DMPC small unilamellar vesicles (fluorescence anisotropy titration); conditions: for KDMPC overall association constant: PBS buffer at PH 7.4 and 37° C.
[9] = Kinetics of lactone ring opening in PBS buffer (HPLC); format: physicochemical; conditions: for % Lactone at Equilibrium: PBS; for half-life: buffer, pH 7.4
Method: Kinetics of Lactone Ring Opening. […] Mi and Burke (1994), supra.
FIG. 21 summarizes the stability of DB172 in phosphate buffered saline (PBS) buffer, pH 7.4, at physiological temperature. Shown in the figure are plots of lactone fraction as a function of time for DB172 at different concentrations. Drug was added to solution from a concentrated DMSO stock solution such that the volumes of DMSO were very small (less than 0.5%) relative to the volume of water. […] At the more dilute drug concentrations the drug hydrolyzes as previously observed for other camptothecins containing the ^α-hydroxy-^δ-lactone moiety.

[10] = Kinetics of lactone ring opening in PBS containing HSA (HPLC); conditions: HSA (PBS containing 30 mg/ml HSA)
[11] = tested on: MDA-MB-435 tumorigenic metastatic human breast cancer cells; test: cells; format: cell-based; conditions: Homo sapiens
Method: Cells. […] The cells were exposed to a range of drug concentrations for 72 hr exposure periods and then viability was assessed using a sulphorrhodamine B (SRB) assay. SRB assays were performed using a standard assay.
Sulphorhodamine B (SRB) assay was used. This assay measures the total protein levels in the living cells. Proteins from dead cells are lysed and removed in the washing step before TCA fixation. However, it is possible that cells in the early stage of death still have their membrane integrity and therefore retain the protein contents inside. As a result, the optical density at 490 nm can sometimes be overestimated and the cytotoxicity underestimated. […] The SRB assay is now a well regarded assay and was recently approved by NCI as a standard assay for anticancer drug screening.

[12] = molecular target: human serum albumin (HSA) (Homo sapiens, UniProt P02768); conditions: PBS at pH 7.4; cited from earlier work
human serum albumin (HSA), sequence (P02768 25-609): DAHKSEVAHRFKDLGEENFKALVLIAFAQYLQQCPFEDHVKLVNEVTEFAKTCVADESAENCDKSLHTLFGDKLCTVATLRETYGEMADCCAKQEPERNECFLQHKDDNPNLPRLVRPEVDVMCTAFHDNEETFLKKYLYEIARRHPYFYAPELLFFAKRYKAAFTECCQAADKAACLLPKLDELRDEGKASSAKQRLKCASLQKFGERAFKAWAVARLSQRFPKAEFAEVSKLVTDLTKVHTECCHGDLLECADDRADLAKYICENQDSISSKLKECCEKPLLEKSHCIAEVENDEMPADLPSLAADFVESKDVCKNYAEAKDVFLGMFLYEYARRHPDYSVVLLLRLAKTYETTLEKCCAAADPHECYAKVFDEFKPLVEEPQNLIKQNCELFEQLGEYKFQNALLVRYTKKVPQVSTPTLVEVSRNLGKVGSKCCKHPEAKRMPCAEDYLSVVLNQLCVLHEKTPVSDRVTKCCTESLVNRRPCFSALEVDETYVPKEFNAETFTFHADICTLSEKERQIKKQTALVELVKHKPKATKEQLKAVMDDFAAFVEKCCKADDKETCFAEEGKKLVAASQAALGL

in vitro = conditions: human
[13] = Equilibrium binding to DMPG small unilamellar vesicles (fluorescence anisotropy titration); conditions: for KDMPG overall association constant: PBS buffer at PH 7.4 and 37° C.
[14] = Blood levels of DB-67 after intrastomach dosing; format: in vivo; conditions: 5 mg/kg intrastomach injection in DMSO; samples at 30 min, 1 hr, 2 hr, 4 hr
Method: To evaluate the blood levels achieved following dosing at 5 mg/kg, four animals were given 0.1 ml intrastomach injections of DB-67 dissolved in DMSO. The stock contained DB67 at a concentration of 1.6 mg/ml. At time points of 30 min, 1 hr, 2 hr, and 4 hr, 1 ml samples of blood were drawn and collected by heart puncturing. The samples were centrifuged for 3 min and stored frozen until analysis was carried out.

[15] = Self-association in aqueous solution (fluorescence intensity with time); format: physicochemical; conditions: lactone drug forms added to solution, time=0
Method: FIG. 22 summarizes the dependence of the fluorescence intensity of DB172 as a function of time and pH. In these experiments DB172 is added to solution as the lactone form. At low pH where the drug remains in the lactone form, the change in intensity with time is the lowest. At pH 10, where the conditions are such that the lactone more readily hydrolyzes and forms carboxylate, a significant change in fluorescence intensity is observed. It appears that a pH 10 nonfluorescent micellular aggregates composed of lactone disassemble and form open-ring carboxylate forms that tend to exist in solution as monomeric fluorescent species.
FIG. 23 explores the fluorescence intensity of DB172 as a function of concentration. Following the addition of low concentration of lactone drug to solution, the change in fluorescence signal is the greatest whereas at high drug concentration (10 ^μM) the fluorescence intensity changes are minimal. It is believed that a low concentration the micellular aggregates of DB172 displaying reduced fluorescence can disassemble and form fluorescent carboxylate species, but at higher drug concentration the equilibrium favors that the agent remains in the aggregated or reduced fluorescence state. […] Once again this decrease in fluorescence that occurs at reduced pH appear to be due to the formation of lactone aggregates of reduced fluorescence quantum yield.
FIGS. 21 through 24 are consistent with the unusual ability of DB172 lactone to self-associate and form micelles at micromolar drug concentrations. The micellular DB172 aggregates display a reduced fluorescence. If conditions allow for hydrolysis to occur such that carboxylate forms, there is an increase in the fluorescence intensity of the sample. FIG. 25 compares the relative change in the fluorescence emission of a sample following addition of lactone drug forms to solution. In these experiments the values for each drug are normalized to a value of 1 at time equals to zero, and the ability of the various analogs to disassociate in the event the drugs are aggregated at time=0 is monitored with time. […]

[16] = Kinetics of lactone ring opening in RBC (HPLC); format: in vitro ADME, human; conditions: RBC
From the text: Kinetics of Lactone Ring Opening. […] Mi and Burke (1994), supra. […] Louis, Mo.) was used.

[17] = tested on: glioma cells (U87, A172, SG388, T98G, LN-Z308); test: Inhibition of cell proliferation in glioma cell lines; format: cell-based; conditions: several lines of glioma cells (U87, A172, SG388, T98G, LN-Z308), read-out: median effective concentrations, inhibiting cell proliferation
sarcoma-180 = test: Antitumor activity in vivo, sarcoma-180; conditions: B6D2F1 mice, intraperitoneously twice daily for five days, several equivalent doses
Method: as §2

[18] = human
[19] = Whole Blood, physiological temperature
[20] = human plasma, pH 7.4 and 37° C.
[21] = MDA-MB-435 cells, 72 hrs exposure, absence of HSA, read-out: IC50 (w/o HSA)

SMILES	IC50 [1] [nM]	IC50 [2] [nM]	IC50 [3] [nM]	% Lactone at Equilibrium [6, 19] [%]	KDMPC overall association constant [8] [M⁻¹]	% Lactone at Equilibrium [9]	% Lactone at Equilibrium [10]	t1/2 [10] [min]	half-life (in vitro; whole blood) [min]	KDMPG overall association constant [13] [M⁻¹]	K value for DMPC, fold greater than camptothecin ([8]; relative to camptothecin) [fold]	IC50 [11, 21] [nM]	half-life [9] [min]	half-life (in vitro; blood) [min]	also measured
CCC1(O)C(=O)OCc2c1cc1n(c2=O)Cc2c-1nc1cc(F)ccc1c2[Si](C)(C)C (stereo in doubt) [Example 7, (20S)-11-fluoro-7-trimethylsilylcamptothecin]	2	0.92	0.75	–	–	–	–	–	–	–	–	–	–	–	similar antitumor effect (tumor volume reduction) to camptothecin at x-fold lower doses (Lewis lung carcinoma): 4 fold
CC[C@@]1(O)C(=O)OCc2c1cc1n(c2=O)Cc2cc3c(N)cccc3nc2-1 [9-aminocamptothecin]	–	–	–	< 0.3	–	–	–	–	–	–	–	–	–	–	fraction converted to carboxylate in plasma ([4]; plasma): > 99.5%; fraction hydrolyzed in PBS solution containing HSA [5]: > 97%
CC[C@@]1(O)C(=O)OCc2c1cc1n(c2=O)Cc2cc3ccccc3nc2-1 [CPT, (20S)-Camptothecin, reference compound]	6 to 9	10	5	–	100	17 +/− 2.0%	<0.5%	11.9 ± 0.3	21.6	100	–	–	–	–	t1/2 of lactone in whole blood [7]: 22 min; % lactone at equilibrium in human plasma [4, 20]: 0.2%; t1/2 of lactone opening in human plasma [4, 20]: 11 min; IC50 ([11]; MDA-MB-435, 72 h, read-out: IC50 (w/o HSA)): 8 nM; % Lactone at Equilibrium ([6]; Whole Blood, physiological temperature, listed as Camptothecin): 5.3 +/− 0.6%; % Lactone at Equilibrium ([6]; Whole Blood, physiological temperature, listed as camptothecin): 5.3%; lactone level at equilibrium in whole blood, fold greater than 9-aminocamptothecin ([6]; relative to 9-aminocamptothecin): approximately 10 fold; affinity of HSA for the carboxylate form, fold higher than for the lactone form [12]: 200 fold
CC[C@@]1(O)C(=O)OCc2c1cc1n(c2=O)Cc2c-1nc1ccc(O)cc1c2[Si](C)(C)C(C)(C)C [DB-67, (20S)10-Hydroxy-7-tert-butyldimethylsilylcamptothecin]	–	–	–	30	2700	10.2 +/− 0.3%	10.5 +/− 2.0%	119.0 ± 5.3	130	2800	27	7	–	–	times more lipophilic than camptothecin ([8]; relative to camptothecin): 25 times; DB67 levels in blood after oral dosage [14]: > 40 ng/mL; self-association / aggregation state in solution [15]: much more likely to be found in solution as monomeric drug relative to DB172; IC50 ([11]; MDA-MB-435 cells, 72 hrs exposure, presence of 1 mg/ml HSA, read-out: IC50 (w/HSA)): 22 nM; % Lactone at Equilibrium [16]: 41.4 +/− 0.7%; t1/2 [16]: 51.4 ± 0.5 min; t1/2 [6, 19]: 133.0 ± 15.9 min; % Lactone at Equilibrium ([6]; Whole Blood, physiological temperature, listed as DB 67): 30.5 +/− 1.9%; K value for DMPG, fold greater than camptothecin ([13]; relative to camptothecin): 28 fold
CC[C@@]1(O)C(=O)OCc2c1cc1n(c2=O)Cc2c-1nc1ccc(O)cc1c2CC[Si](C)(C)C [DB-174, (20S)-10-Hydroxy-7-[(2-trimethylsilyl)ethyl]camptothecin]	–	–	–	–	9000	13.7 +/− 0.7%	–	–	–	6600	~90	12	29.7	40.3	EC50 [17]: 0.01 to 0.1 µg/mL (≈ 0.0215 to 0.215 µM)
CC[C@@]1(O)C(=O)OCc2c1cc1n(c2=O)Cc2c-1nc1ccccc1c2[Si](C)(C)C [Example 1, (20S)-7-trimethylsilylcamptothecin]	4.2	5.6	3.8	–	–	11.1 +/− 0.1%	–	–	–	–	–	–	34.6	54.6	activity against sarcoma 180 compared with camptothecin (tumor volume reduction) (sarcoma-180): better activity than camptothecin; % Lactone at Equilibrium [18]: 23.7 +/− 0.0%

Reference: US6743917B2, “Camptothecin analogs and methods of preparation thereof” (University of Pittsburgh, priority 1993, dated 2004)
